Read-outs that look alike come from different tables or passages of the source.
Tests used:
[1] = Measurement method 1-1: in vitro skin-pore absorption into hair follicles and skin tissue; assay type: in vitro ADME, miniature pig
Excerpt: In measurement method 1-1, the skin of a model animal or the skin reconstructed from skin cells may be employed as a skin model. The model animal from which the skin is taken is not particularly limited, and pig, human, cattle, mouse, or rat are all potential donors. In measurement method 1-1, the skin of a hairy animal is usually employed in order to evaluate the penetrability of a drug through skin pores into hair follicles. Therefore, a mutated hairless animal is usually unsuitable for the model animal. […] Therefore, other than human, pig is preferably employed as a model animal.
The skin is not particularly limited, so long as the skin satisfies the above condition. For example, as described below in the Example, a skin model may be fixed onto a collagen gel.
The conditions for the application of the substance may be arbitrarily determined in accordance with the type of the substance or the object. Usually, the skin to which the substance is applied is incubated at about 37° C. (near the temperature of the human body) over a predetermined time period. The incubation time varies with the intended product form of the substance.
The portion at which the delivery amount of the substance is measured is limited to the region corresponding to the dermis of the skin, since in the region corresponding to the stratum corneum or epidermis of the skin, the hair follicle may be contaminated with epidermal tissue debris or excretions from the sebaceous glands, and thus the exact delivery amount of the substance is difficult to measure.
The method for measuring the delivery amount of the substance is not particularly limited. For example, liquid chromatography (including high-performance liquid chromatography), a fluorescent antibody technique using a fluorescence-labeled antibody, mass spectrometry, or a method using a radioisotope may be employed. Of these, liquid chromatography is preferable, in consideration of convenience.
In the evaluation test, 0.5% pantothenyl ethylether (90% ethanol product) was employed as a substance to be tested, and the skin of a miniature pig (Yucatan Micropig Skin Set: product of Charles River) was employed as a skin model.
The test sample (20 μl) was applied onto the skin sample comprising skin pores 14. The substance was applied onto a region (diameter: 1.5 cm) of the sample; i.e., within an assay ring to which silicon grease was applied. The resultant skin sample 10 was allowed to stand at 37° C. for 16 hours. After having being washed, the sample 10 was separated into the stratum corneum 11, the epidermis 12, and the dermis 13. Subsequently, hair follicles 15 were removed from the dermis 13, and the amount of pantothenyl ethylether contained in the follicles was measured, as a delivery amount per unit weight of the hair follicle, by means of liquid chromatography (NANOSPACE (product of Shiseido Co., Ltd.), eluent: (CH3CN:H2O=3:7), detection wavelength: 210 nm).
The skin sample 10 of the miniature pig was derived from the upper back and lower back (n=3).

[2] = in vivo
Procedure: (§1) (2) an in vivo quantification method (hereinafter referred to as “measurement method 1-2”) in which the amount of a substance (e.g., a drug) which is penetrated into the hair follicle is determined by applying the substance to the human scalp, removing the hair follicle from the scalp, and measuring the concentration of the substance which is delivered to the hair follicle.
(§2) In measurement method 1-2, a method for the application of a substance such as a drug to the human scalp may be arbitrarily determined in accordance with the characteristics or the intended product form of the substance.
(§3) After the substance is applied to a person participating in the test, several hair strands from the person are removed, and the thus-obtained hair follicles may be stored as hair shafts and/or outer root sheaths. The amount of the substance which is delivered to the subcutaneous portion of the hair shaft and/or the outer root sheath is measured, and the thus-obtained delivery amount of the substance may be employed as an index of the skin-pore absorbability of the substance.
(§4) The delivery amount of the substance may be measured in a manner similar to that of measurement method 1-1.
(§5) Thirty male panelists were enrolled in the test. […] Each of the test samples (0.5 ml for each) was applied to the scalp (area: 1 cm^2) of each male panelist, and then the scalp was left for 16 hours. […]

[3] = Measurement method 2: sebum transferability through keratinized silicone film into artificial sebum (Franz cell kit); assay type: in vitro ADME; details: 5% isostearyl alcohol, 2% minoxidil composition, 20 μl, 37° C., 24 hours, FIG. 12
Excerpt: The present invention also provides a method for the measurement of skin absorbability of a substance (hereinafter the method will be referred to as “measurement method 2”), which comprises bringing a substance into contact with a first surface of a film that mimics the skin surface layer, a second surface of the film being brought into contact with artificial sebum; and using the degree of transfer of the substance to the artificial sebum as an index, to thereby evaluate the sebum transferability of the substance.
The sebum transferability of a substance may be evaluated through the following procedure: the substance is applied to the stratum corneum side of the thin film, the opposite side of the stratum corneum side being brought into contact with the artificial sebum; the degree of transfer of the substance to the artificial sebum, for example, the amount of the substance transferred to the sebum per unit time, i.e., the amount of the substance contained in the sebum is measured; and the amount of the substance in the sebum is employed as an index, to thereby evaluate the sebum transferability of the substance.
1. […]
The test was carried out under the aforementioned conditions. […] The degree of transfer of minoxidil to the artificial sebum was evaluated on the basis of the concentration of minoxidil contained in the sebum after the elapse of a specified time period. […]

[4] = Measurement method 1-2: in vivo skin-pore absorption, human scalp hair follicles; details: 5% isostearyl alcohol, 1% pantothenyl ethylether, 0.5 ml on scalp, 16 hours, vs control, FIG. 8
Procedure: as §1, §2, §3, §4, §5

| SMILES | skin-pore absorption of pantothenyl ethylether ([1]; 1% terpene refreshing agent, 0.5% pantothenyl ethylether, vs control, FIGS. 11A and 11B) | skin-pore absorption of pantothenyl ethylether [2] | skin-pore absorption of minoxidil (concentration delivered to the hair follicles) ([1]; 5% isostearyl alcohol compared with 5% amine oxide composition, 0.5% minoxidil, FIG. 9B) | skin-pore absorption of β-glycyrrhetinic acid (concentration delivered to the hair follicles) ([1]; 5% isostearyl alcohol compared with 5% amine oxide composition, 0.5% β-glycyrrhetinic acid, FIG. 9A) | concentration of pantothenyl ethylether delivered to hair follicles ([1]; 5% isostearyl alcohol composition vs control, 0.5% pantothenyl ethylether, 20 μl, 37° C., 16 hours, FIG. 4) | concentration of pantothenyl ethylether delivered to the stratum corneum ([1]; 5% isostearyl alcohol composition vs control, FIG. 5A) | concentration of pantothenyl ethylether delivered to the epidermis ([1]; 5% isostearyl alcohol composition vs control, FIG. 5B) | concentration of pantothenyl ethylether delivered to the dermis ([1]; 5% isostearyl alcohol composition vs control, FIG. 5C) | sebum transferability of minoxidil (concentration of minoxidil in the artificial sebum) [3] | concentration of pantothenyl ethylether delivered to the hair follicles (hair shafts and outer root sheaths) [4] |
| --- | --- | --- | --- | --- | --- | --- | --- | --- | --- | --- |
| CC12CCC(CC1=O)C2(C)C (stereo not shown) [camphor] | accelerates | accelerates |  |  |  |  |  |  |  |  |
| CC(C)CCCCCCCCCCCCCCCO [isostearyl alcohol] |  |  | accelerates | accelerates | increases significantly | decreased | decreased | slightly increased | enhances | increases |

— patent publication US7799319B2, “Method for measuring skin absorbability” (Shiseido Company, Ltd., priority 2000, dated 2010)
